# Biological target: T1, Cathepsin G (Homo sapiens, UniProt P08311)
# T1 sequence (P08311 whole entry): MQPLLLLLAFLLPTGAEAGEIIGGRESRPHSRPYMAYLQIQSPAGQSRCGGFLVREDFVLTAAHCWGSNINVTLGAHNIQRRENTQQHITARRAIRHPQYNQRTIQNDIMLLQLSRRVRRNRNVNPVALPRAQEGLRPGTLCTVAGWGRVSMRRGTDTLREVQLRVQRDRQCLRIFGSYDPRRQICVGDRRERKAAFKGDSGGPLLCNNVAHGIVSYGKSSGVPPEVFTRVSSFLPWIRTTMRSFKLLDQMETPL
# Assay: IC50 of CTSG protease blockers – biochemical, confirmation, dose response (AID 832)
row,IC50 [µM],Compound
1,> 50,"COc1cccc(-c2cc(C(=O)NCCc3ccccc3)no2)c1 [5-(3-methoxyphenyl)-N-(2-phenylethyl)-1,2-oxazole-3-carboxamide]"
2,> 50,COc1cc(NC(=O)c2csc3c2CCCC3)ncn1 [MLS000093387]
3,3.86,"Cn1cnnc1SCc1ccc(C(=O)n2ncc(C#N)c2N)cc1 [5-amino-1-[4-[(4-methyl-1,2,4-triazol-3-yl)sulfanylmethyl]benzoyl]pyrazole-4-carbonitrile]"
4,4.25,Cc1cc(NC(=O)c2noc3c2CCc2ccccc2-3)no1 [MLS000116422]
5,12,CCOC(=O)c1c(C)n(C(=O)c2ccco2)c(=O)n1C(=O)c1ccco1
6,1.58,"Cc1ccc(C(=O)n2cnnc2N)cc1C [4-(3,4-dimethylbenzoyl)-4H-1,2,4-triazol-3-amine]"
7,18.6,"Cc1nn(Cc2ccc(Cl)c(Cl)c2)c(C)c1NC(=O)c1cc(-c2ccc3c(c2)OCO3)on1 [5-(1,3-benzodioxol-5-yl)-N-[1-(3,4-dichlorobenzyl)-3,5-dimethyl-1H-pyrazol-4-yl]isoxazole-3-carboxamide]"
8,0.631,COc1ccc2c(c1)CCc1c(C(=O)NC3CCCCC3)noc1-2 [MLS000087437]
9,> 50,"COc1cc2nc(-c3cccs3)oc(=O)c2cc1OC [6,7-dimethoxy-2-(2-thienyl)-3,1-benzoxazin-4-one]"
10,20.2,CC[C@@H](C)[C@H](NC(=O)OC(C)(C)C)c1nnc(S(=O)(=O)Cc2cc(C)ccc2C)o1 [MLS000042033]
11,1.31,"COc1ccc(C(=O)n2cnc(N)n2)cc1 [(3-amino-1,2,4-triazol-1-yl)-(4-methoxyphenyl)methanone]"
12,2.67,"CC(C)(C)OC(=O)N[C@@H](Cc1ccccc1)c1nnc(S(=O)(=O)Cc2cccc(F)c2)o1 [tert-butyl N-[(1S)-1-[5-[(3-fluorophenyl)methylsulfonyl]-1,3,4-oxadiazol-2-yl]-2-phenylethyl]carbamate]"
13,3.97,C#CCOC(=O)c1ccccc1C(=O)n1nnc2ccccc21
14,1.95,CC(C)(C)OC(=O)N[C@@H](Cc1ccccc1)c1nnc(S(=O)(=O)Cc2ccccc2)o1 [SMR000047857]
15,2.52,COc1ccc2c(c1)CCc1c(C(=O)NCc3ccc(F)cc3)noc1-2 [MLS000116425]
16,28.4,"Nc1nncn1C(=O)c1cccs1 [(3-Amino-[1,2,4]triazol-4-yl)-thiophen-2-yl-methanone]"
17,1.78,"CSc1nc(-c2ccco2)nn1C(=O)c1cccs1 [[3-(furan-2-yl)-5-methylsulfanyl-1,2,4-triazol-1-yl]-thiophen-2-ylmethanone]"
18,30.4,"COC(=O)c1ccccc1NC(=O)c1cc2sccc2n1C [2-[(4-Methyl-4H-thieno[3,2-b]pyrrole-5-carbonyl)-amino]-benzoic acid methyl ester]"
19,2.55,CCCNC(=O)c1noc2c1CCc1ccccc1-2 [MLS000116420]
20,0.957,O=C(c1ccc2c(c1)OCO2)n1nnc2ccccc21
21,41.5,COc1ccc(C(=O)n2ccc(C)n2)cc1Br [(3-bromanyl-4-methoxy-phenyl)-(3-methylpyrazol-1-yl)methanone]

row,IC50 [µM],Compound
1,21.6,CCOC(=O)c1ccc(/N=C/c2nc(-c3ccccc3)oc2OC(C)=O)cc1 [MLS000027596]
2,47.6,"O=C(c1noc2c1CCc1ccccc1-2)N1CCCc2ccccc21 [3-(3,4-dihydroquinolin-1(2H)-ylcarbonyl)-4,5-dihydronaphtho[2,1-d]isoxazole]"
3,> 50,COc1ccccc1-c1c(C#N)c(SCC(=O)N2CCCC2)nc(C)c1C(N)=O [SMR000061200]
4,37.9,COc1ccccc1/N=C/c1nc(-c2ccccc2)oc1OC(C)=O [SMR000039734]
5,> 50,"Cc1nc2scc(-c3cccs3)c2c(=O)o1 [2-methyl-5-(2-thienyl)thieno[2,3-d][1,3]oxazin-4-one]"
6,21.8,"COc1ccccc1-c1cc(C(=O)NC(C)c2ccccc2)no1 (configuration not stated) [5-(2-methoxyphenyl)-N-(1-phenylethyl)-1,2-oxazole-3-carboxamide]"
7,2.91,"COc1ccc2c(c1)CCc1c(C(=O)Nc3ccn(Cc4ccc(C)cc4)n3)noc1-2 [7-methoxy-N-[1-(4-methylbenzyl)-1H-pyrazol-3-yl]-4,5-dihydronaphtho[2,1-d]isoxazole-3-carboxamide]"
8,1.47,COc1ccc2c(c1)CCc1c(C(=O)Nc3cc(C)n(Cc4ccc(Cl)cc4)n3)noc1-2 [MLS000087458]
9,> 50,COc1ccc(C2C(C(=O)c3cccs3)C(=O)C(=O)N2c2nncs2)cc1 (configuration not stated)
10,> 50,"O=C(c1noc2c1CCc1ccccc1-2)N1CCOCC1 [3-(morpholin-4-ylcarbonyl)-4,5-dihydronaphtho[2,1-d]isoxazole]"
11,4.64,COc1ccc2c(c1)CCc1c(C(=O)Nc3c(C)n(C)n(-c4ccccc4)c3=O)noc1-2 [MLS000087455]
12,19.6,"O=C(c1noc2c1CCc1ccccc1-2)N1CCc2ccccc2C1 [3-(3,4-dihydroisoquinolin-2(1H)-ylcarbonyl)-4,5-dihydronaphtho[2,1-d]isoxazole]"
13,> 50,O=C1CCCC(=O)C1=CNCCc1ccccc1 [MLS000108318]
14,33,"COc1ccc(OC)c(-c2cc(C(=O)Nc3c(C)nn(Cc4ccccc4)c3C)no2)c1 [5-(2,5-dimethoxyphenyl)-N-[3,5-dimethyl-1-(phenylmethyl)-4-pyrazolyl]-3-isoxazolecarboxamide]"
15,> 50,Cc1cnc(C(=O)Nc2ccccc2-c2ccc(C)o2)cn1 [5-Methyl-pyrazine-2-carboxylic acid [2-(5-methyl-furan-2-yl)-phenyl]-amide]
16,2.48,O=C(NCCc1ccccc1)c1noc2c1CCc1ccccc1-2 [MLS000087424]
17,4.51,"Nc1nc(C(=O)N2CCOCC2)nn1C(=O)c1ccc(Cl)cc1 [(5-azanyl-3-morpholin-4-ylcarbonyl-1,2,4-triazol-1-yl)-(4-chlorophenyl)methanone]"
18,> 50,"CC(C)C(CC(=O)N1CCCCC1)C1CCOC(C)(C)C1 (configuration not stated) [3-(2,2-dimethyl-4-oxanyl)-4-methyl-1-(1-piperidinyl)-1-pentanone]"
19,20.8,COc1ccc(S(=O)(=O)n2nc(OC(=O)c3ccccc3)cc2N)cc1 [Benzoic acid 5-amino-1-(4-methoxy-benzenesulfonyl)-1H-pyrazol-3-yl ester]
20,14.5,COc1ccc2c(c1)CCc1c(C(=O)Nc3ccc(OC)c(OC)c3)noc1-2 [MLS000087452]
21,> 50,"COc1ccc2c(c1)CCc1c(C(=O)N3CCc4ccccc4C3)noc1-2 [3,4-dihydro-1H-isoquinolin-2-yl-(7-methoxy-4,5-dihydrobenz[g]indoxazen-3-yl)methanone]"

row,IC50 [µM],Compound
1,> 50,O=c1[nH]c(CN2CCc3ccccc3C2)nc2ccccc12 [MLS000088906]
2,4.43,COc1ccc(C(=O)n2nc(-c3ccccc3)nc2N)cc1OC [MLS000099650]
3,1.39,"COc1ccc2c(c1)CCc1c(C(=O)NCc3cccnc3)noc1-2 [7-methoxy-N-(3-pyridinylmethyl)-4,5-dihydrobenzo[g][1,2]benzoxazole-3-carboxamide]"
4,2.77,"O=c1oc(-c2cccnc2)nc2ccccc12 [2-(3-pyridinyl)-3,1-benzoxazin-4-one]"
5,18.3,COc1ccc(S(=O)(=O)n2nc(OC(=O)c3ccc(C)cc3)cc2N)cc1 [4-Methyl-benzoic acid 5-amino-1-(4-methoxy-benzenesulfonyl)-1H-pyrazol-3-yl ester]
6,22,"COc1ccc(C(=O)n2nc(-c3ccco3)nc2SC)cc1OC [(3,4-dimethoxyphenyl)-[3-(2-furanyl)-5-(methylthio)-1,2,4-triazol-1-yl]methanone]"
7,4.66,"Cc1ccsc1C=c1sc2ncnn2c1=O [5-[(3-methyl-2-thienyl)methylene][1,3]thiazolo[3,2-b][1,2,4]triazol-6(5H)-one]"
8,43.2,COc1ccccc1-c1cc(C(=O)Nc2cccnc2)no1 [5-(2-methoxyphenyl)-N-(3-pyridinyl)-3-isoxazolecarboxamide]
9,> 50,COC(=O)c1sc(N2C(=O)C(=O)C(C(=O)c3ccc(C)o3)C2c2ccc(F)cc2)nc1C (configuration not stated) [2-[2-(4-fluorophenyl)-4-hydroxy-3-[(5-methyl-2-furanyl)-oxomethyl]-5-oxo-2H-pyrrol-1-yl]-4-methyl-5-thiazolecarboxylic acid methyl ester]
10,3.43,CCC(=O)Nc1cccc(-c2nc3ccccc3c(=O)o2)c1 [MLS000090237]
11,11.1,COc1ccccc1-c1cc(C(=O)NCc2ccc(Cl)cc2)no1 [MLS000087096]
12,6.4,"COCC(C)NC(=O)c1noc2c1CCc1cc(OC)ccc1-2 (configuration not stated) [7-methoxy-N-(1-methoxypropan-2-yl)-4,5-dihydrobenzo[g][1,2]benzoxazole-3-carboxamide]"
13,11.7,"CSc1nc(-c2ccco2)nn1C(=O)c1ccco1 [2-furanyl-[3-(2-furanyl)-5-(methylthio)-1,2,4-triazol-1-yl]methanone]"
14,4.13,COc1ccc2c(c1)CCc1c(C(=O)NCCCn3ccnc3)noc1-2 [MLS000087439]
15,23.3,"CN1CC2(Cc3c1ccc1ccccc31)C(=O)OC(C)(C)OC2=O [2',2',4-trimethylspiro[1,3-dihydrobenzo[f]quinoline-2,5'-1,3-dioxane]-4',6'-dione]"
16,2.26,Cc1cc(OC(=O)c2ccccc2)n(CCC#N)n1 [[2-(2-cyanoethyl)-5-methyl-pyrazol-3-yl] benzoate]
17,> 50,Cc1cc(NC(=O)c2noc3c2CCc2ccccc2-3)n(-c2ccccc2)n1 [MLS000116423]
18,4.36,"COCCNC(=O)c1noc2c1CCc1cc(OC)ccc1-2 [7-methoxy-N-(2-methoxyethyl)-4,5-dihydrobenz[g]indoxazene-3-carboxamide]"
19,> 50,"Cc1cccc(-n2nnc(C(=O)Nc3ccc(F)cc3)c2N)c1 [5-amino-N-(4-fluorophenyl)-1-(3-methylphenyl)-1H-1,2,3-triazole-4-carboxamide]"
20,5.32,O=C(NCCN1CCOCC1)c1noc2c1CCc1ccccc1-2 [MLS000087427]

# Reference: BindingDB's records for doi:10.7270/Q2QF8R8B (Pcmd, 2008)
